# Measured values from PubChem BioAssay (NCI).
#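 Briefly, cells in 96-well plates were exposed to five compound concentrations for 48 h, and endpoints were estimated by linear interpolation. GI50 is the concentration that inhibits growth by half. The concentration for full growth arrest is given as TGI.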
# Assays:
# Test in all cases: DTP human tumour cell line panel, 48 h
# SF-268 CNS = test system: SF-268 CNS
# K-562 leukemia = test system: K-562 leukemia
# DU-145 prostate = test system: DU-145 prostate
# CAKI-1 renal = test system: CAKI-1 renal
# HL-60(TB) leukemia = test system: HL-60(TB) leukemia
# MOLT-4 leukemia = test system: MOLT-4 leukemia
# HCC-2998 colon = test system: HCC-2998 colon
# SK-MEL-28 melanoma = test system: SK-MEL-28 melanoma
# T-47D breast = test system: T-47D breast
# U251 CNS = test system: U251 CNS
Structure (SMILES),GI50 (SF-268 CNS),TGI (SF-268 CNS),GI50 (K-562 leukemia),TGI (K-562 leukemia),GI50 (DU-145 prostate),TGI (DU-145 prostate),GI50 (CAKI-1 renal),TGI (CAKI-1 renal),GI50 (HL-60(TB) leukemia),TGI (HL-60(TB) leukemia),GI50 (MOLT-4 leukemia),TGI (MOLT-4 leukemia),GI50 (HCC-2998 colon),TGI (HCC-2998 colon),GI50 (SK-MEL-28 melanoma),TGI (SK-MEL-28 melanoma),GI50 (T-47D breast),TGI (T-47D breast),GI50 (U251 CNS),TGI (U251 CNS)
Cc1cc(Nc2cc(N3CCN(C)CC3)nc(Sc3ccc(NC(=O)C4CC4)cc3)n2)n[nH]1,5.52 µM,> 10 µM,0.232 µM,> 10 µM,> 10 µM,> 10 µM,4.27 µM,> 10 µM,0.283 µM,> 10 µM,4.21 µM,> 10 µM,5.66 µM,> 10 µM,3.47 µM,> 10 µM,> 10 µM,> 10 µM,3.05 µM,> 10 µM
Nc1nc(N)c2cc(Sc3cccc(C(F)(F)F)c3)ccc2n1,,19 µM,,1.92 µM,,14.4 µM,,16.7 µM,,3.24 µM,,6.08 µM,,2.83 µM,,7.61 µM,1.71 µM,3.6 µM,,4.78 µM
CN(C)c1ccc(/C=c2/c3ccccc3n3c2c2cc(F)ccc2[n+]3C)cc1,3.38 µM,15.7 µM,1.48 µM,> 47.5 µM,5.07 µM,18.4 µM,11.6 µM,29.4 µM,0.954 µM,> 100 µM,8.63 µM,27.5 µM,,11.4 µM,3.55 µM,14.1 µM,3.42 µM,16.7 µM,0.905 µM,
Clc1ccccc1C(Nc1ncccn1)Nc1ncccn1,,> 100 µM,,> 100 µM,,> 100 µM,,> 100 µM,,> 100 µM,,> 100 µM,,> 100 µM,,> 100 µM,,> 100 µM,,> 100 µM
CCOC(=O)c1cnn2c3ccccc3n(S(=O)(=O)c3ccc(OC)cc3)c12,2.33 µM,> 100 µM,0.0553 µM,> 100 µM,0.395 µM,> 24.2 µM,0.204 µM,> 83.7 µM,0.226 µM,0.695 µM,0.389 µM,> 100 µM,0.349 µM,30.1 µM,5.98 µM,> 100 µM,13.8 µM,> 100 µM,0.377 µM,> 100 µM
O=C(CC(=O)c1cccc(Cl)c1)c1cccc(Cl)c1,2.76 µM,> 100 µM,1.12 µM,> 100 µM,2.77 µM,> 100 µM,1.61 µM,6.65 µM,1.99 µM,> 100 µM,2.08 µM,> 100 µM,5.31 µM,> 100 µM,2.7 µM,> 100 µM,2.53 µM,> 100 µM,1 µM,> 100 µM
O=c1cc(-c2ccccc2)oc2cc(OC/C(=N/O)c3ccc(F)cc3)ccc12,19.7 µM,> 50 µM,27.5 µM,> 50 µM,18.1 µM,> 50 µM,11.8 µM,38.6 µM,19 µM,> 50 µM,> 50 µM,> 50 µM,15.3 µM,45.8 µM,27.1 µM,> 50 µM,25.5 µM,> 50 µM,22 µM,> 50 µM
Oc1[nH]c2ccccc2c1N=Nc1c(F)c(F)c(F)c(F)c1F,,> 100 µM,,33.5 µM,,> 100 µM,,> 64.3 µM,,9.15 µM,,31.8 µM,,> 100 µM,,> 100 µM,,> 74.7 µM,,> 100 µM
O=C1c2ccccc2C(=O)c2sc(Nc3ccccc3Cl)nc21,,23.7 µM,,6.8 µM,,31.4 µM,,18.4 µM,,4.18 µM,,11.1 µM,,34.9 µM,,30.2 µM,,34.5 µM,,19.5 µM
COc1cccc(/C(C)=N/NC(=O)CSc2nc3ccccc3c(=O)n2CCc2ccc(S(N)(=O)=O)cc2)c1,2.68 µM,7.32 µM,11.2 µM,> 100 µM,3.35 µM,10.6 µM,3.7 µM,15.4 µM,> 100 µM,> 100 µM,6.5 µM,40.2 µM,24 µM,62.9 µM,10.8 µM,38.7 µM,6.44 µM,29.3 µM,1.98 µM,3.67 µM
COc1ccc(C(CC(=O)c2ccccc2)C(C(=O)c2ccccc2)C(c2ccc(OC)cc2)C2C(=O)NC(=S)NC2=O)cc1 (centres undefined),9.99 µM,55.5 µM,24.8 µM,> 100 µM,10.5 µM,32 µM,2.53 µM,11.8 µM,20.1 µM,> 100 µM,11.4 µM,> 100 µM,2.46 µM,16.6 µM,16 µM,> 100 µM,13.2 µM,> 100 µM,7.42 µM,23.6 µM
CN1CCN(Cc2ccc3c(NNC(=O)c4ccccc4)nc4cc(F)ccc4n23)CC1,0.454 µM,> 100 µM,0.376 µM,21 µM,0.663 µM,> 100 µM,0.248 µM,14.4 µM,0.335 µM,1.91 µM,0.291 µM,20.2 µM,0.526 µM,49.6 µM,0.566 µM,17.8 µM,0.593 µM,22.8 µM,0.373 µM,19 µM
